US11242340B2, “Crystal forms of demethyleneberberine hydrochloride and preparation method therefor” (priority 2018, dated 2022)
Entries after “also recorded” stand apart in the source; their conditions may differ. Structures can show the parent of a compound that is named as a salt. Where two headings read alike, the source gives them in different places.

Columns and labels:
[1] = Stability in strong light irradiation experiment (4,500 lx±500 lx); assay type: physicochemical; settings: for Stability in the strong light irradiation environment: hydrochloride
Description: Demethyleneberberine hydrochloride crystals A, B, C and D are taken in an appropriate amount and placed in plates numbered as A3, B3, C3 and D3 respectively, and then the plates are placed in a strong light irradiation environment at 4,500 lx±500 lx respectively for stability test.

[2] = Stability in high-humidity experiment (RH90±5%); assay type: physicochemical
Description: Demethyleneberberine hydrochloride crystals A, B, C and D are taken in an appropriate amount and placed in plates numbered as A2, B2, C2 and D2 respectively, and then the plates are placed in a high-humidity environment at RH90±5% respectively for stability test.

[3] = Determination of blood concentration in rats after ig administration; assay type: in vivo; settings: ig 200 mg/kg, plasma; for AUC: calculated from the experimental results
Description: Male SD rats are adaptively bred for 3 days, and rats having (220±20) g body weight are selected and divided into 5 groups, namely, blank group, demethyleneberberine hydrochloride crystal form A group, demethyleneberberine hydrochloride crystal form B group, demethyleneberberine hydrochloride crystal form C group and demethyleneberberine hydrochloride crystal form D group. Food supply is stopped for 12 h for gastric emptying before the experiment. For the rats in the experimental groups, ig (intragastric) administration dosage is 200 mg/kg. 0.2 ml of blood is taken from the orbits of the rats at 5 min., 15 min., 30 min., 1 h, 2 h, 6 h and 12 h respectively after ig administration, the whole blood is centrifuged, and 100 μl of plasma is taken and frozen at −20° C. for use later. 100 μl of plasma sample is taken, 200 μl of methanol is added into the plasma sample, the mixture is vortexed for 5 min., and then centrifuged at 10,000 r/min. for 15 min. in a centrifuge; the supernatant is taken and tested by HPLC. […] Through calculation on the basis of the experimental results, it is determined: DAUC=3.675 μg×ml^−1×h>AAUC=1.247 μg×ml^−1×h>BAUC=1.150 μg×ml^−1×h>CAUC=1.077 μg×ml^−1×h.

[4] = Solubility in methanol system at different temperatures, HPLC; assay type: physicochemical; settings: FIG. 14, hydrochloride
Description: Demethyleneberberine hydrochloride crystals A, B, C and D are taken in an appropriate amount and the solubility of demethyleneberberine hydrochloride crystals A, B, C and D at different temperatures in a methanol system is studied respectively. 20 μl of sample is taken at each temperature node and detected by HPLC.

[5] = Stability in high-temperature experiment (60±2° C.); assay type: physicochemical; settings: for X-Ray Powder Diffraction / Content (%) / Content of Relevant Substance (%) / Stability in the high-temperature environment: 60±2° C.; for Stability in the high-temperature environment / Stability under stability test conditions (summary): hydrochloride; for Stability under stability test conditions (summary): summary over high temperature, high humidity and strong light irradiation
Description: Demethyleneberberine hydrochloride crystals A, B, C and D are taken in an appropriate amount and placed in plates numbered as A1, B1, C1 and D1 respectively, and then the plates are placed in a high-temperature environment at 60±2° C. respectively for stability test.

[6] = Solubility in water system at different temperatures, HPLC; assay type: physicochemical; settings: hydrochloride; for Solubility comparison of the four crystal forms (summary): summary over water, methanol and ethanol systems; for Solubility ranking among the four crystal forms: water system, different temperatures, FIG. 13
Description: Demethyleneberberine hydrochloride crystals A, B, C and D are taken in an appropriate amount and the solubility of demethyleneberberine hydrochloride crystals A, B, C and D at different temperatures in a water system is studied respectively. 20 μl of sample is taken at each temperature node and detected by HPLC.

[7] = Solubility in ethanol system at different temperatures, HPLC; assay type: physicochemical; settings: FIG. 15, hydrochloride
Description: Demethyleneberberine hydrochloride crystals A, B, C and D are taken in an appropriate amount and the solubility of demethyleneberberine hydrochloride crystals A, B, C and D at different temperatures in an ethanol system is studied respectively. 20 μl of sample is taken at each temperature node and detected by HPLC.

[8] = day 0, listed as D3, hydrochloride
[9] = day 5, listed as D3, hydrochloride
[10] = day 10, listed as D3, hydrochloride
[11] = day 0, listed as D2, hydrochloride
[12] = day 5, listed as D2, hydrochloride
[13] = day 10, listed as D2, hydrochloride
[14] = day 0, listed as D1, hydrochloride
[15] = day 5, listed as D1, hydrochloride
[16] = day 10, listed as D1, hydrochloride
[17] = day 0, listed as A3, hydrochloride
[18] = day 5, listed as A3, hydrochloride
[19] = day 10, listed as A3, hydrochloride
[20] = day 0, listed as A2, hydrochloride
[21] = day 5, listed as A2, hydrochloride
[22] = day 10, listed as A2, hydrochloride
[23] = day 0, listed as A1, hydrochloride
[24] = day 5, listed as A1, hydrochloride
[25] = day 10, listed as A1, hydrochloride
[26] = day 0, listed as B3, hydrochloride
[27] = day 5, listed as B3, hydrochloride
[28] = day 10, listed as B3, hydrochloride
[29] = day 0, listed as B2, hydrochloride
[30] = day 5, listed as B2, hydrochloride
[31] = day 10, listed as B2, hydrochloride
[32] = day 0, listed as B1, hydrochloride
[33] = day 5, listed as B1, hydrochloride
[34] = day 10, listed as B1, hydrochloride

For `COc1ccc2cc3[n+](cc2c1OC)CCc1cc(O)c(O)cc1-3` [crystal form D, demethyleneberberine hydrochloride], the “X-Ray Powder Diffraction” value ([1]; day 0) was “Unchanged”, the “Content (%)” value [1, 8] was 99.78% and the “Content of Relevant Substance (%)” value [1, 8] was 0.22%. The “X-Ray Powder Diffraction” value ([1]; day 5) was “Unchanged”, the “Content (%)” value [1, 9] was 99.58% and the “Content of Relevant Substance (%)” value [1, 9] was 0.42%. For the same molecule, the “Content (%)” value [1, 10] was 99.64%, the “Content of Relevant Substance (%)” value [1, 10] was 0.36% and the “X-Ray Powder Diffraction” value [1, 10] was “Changed”. For the same molecule, the “Stability in the strong light irradiation environment” value [1] was “unstable in the long-term strong light irradiation environment, and undergoes crystal transformation”, the “Stability in the high-humidity environment” value [2] was “relatively stable” and the “X-Ray Powder Diffraction” value ([2]; day 0) was “Unchanged”. The “Content (%)” value [2, 11] was 99.48%, the “Content of Relevant Substance (%)” value [2, 11] was 0.52% and the “X-Ray Powder Diffraction” value ([2]; day 5) was “Unchanged”. The “Content (%)” value [2, 12] was 99.41%, the “Content of Relevant Substance (%)” value [2, 12] was 0.59% and the “X-Ray Powder Diffraction” value ([2]; day 10) was “Unchanged”. For the same molecule, the “Content (%)” value [2, 13] was 99.32%, the “Content of Relevant Substance (%)” value [2, 13] was 0.68% and the AUC ([3]; male SD rats, hydrochloride) was 3675 ng·h/mL. For the same molecule, the Cmax ([3]; male SD rats, hydrochloride) was 1234 ng/mL, the tmax ([3]; male SD rats, hydrochloride) was 2 h and the “Solubility ranking among the four crystal forms” value [4] was “solubility of crystal form A of demethyleneberberine hydrochloride>solubility of crystal form D”. For the same molecule, the “X-Ray Powder Diffraction” value ([5]; day 0) was “Unchanged”, the “Content (%)” value [5, 14] was 99.78% and the “Content of Relevant Substance (%)” value [5, 14] was 0.22%. The “X-Ray Powder Diffraction” value ([5]; day 5) was “Unchanged”, the “Content (%)” value [5, 15] was 99.83% and the “Content of Relevant Substance (%)” value [5, 15] was 0.17%. For the same molecule, the “Content (%)” value [5, 16] was 99.71%, the “Content of Relevant Substance (%)” value [5, 16] was 0.29% and the “X-Ray Powder Diffraction” value [5, 16] was “Changed”. The “Stability in the high-temperature environment” value [5] was “unstable in the long-term high-temperature environment, and undergoes crystal transformation”, the “Stability under stability test conditions (summary)” value (“Stability … (summary)” for short) [5] was “tends to have crystal transformation under conditions such as high temperature and strong light irradiation” and the “Solubility comparison of the four crystal forms (summary)” value (from here on “Solubility comparison”) [6] was “lowest; also recorded: solubility of crystal form A of demethyleneberberine hydrochloride>solubility of crystal form D”. The “Solubility ranking among the four crystal forms” value [6] was “solubility of crystal form A of demethyleneberberine hydrochloride>solubility of crystal form D” and the “Solubility ranking among the four crystal forms” value [7] was “solubility of crystal form A of demethyleneberberine hydrochloride>solubility of crystal form D”.

For `COc1ccc2cc3[n+](cc2c1OC)CCc1cc(O)c(O)cc1-3` [crystal form A, demethyleneberberine hydrochloride], the “X-Ray Powder Diffraction” value ([1]; day 0) was “Unchanged”, the “Content (%)” value [1, 17] was 99.62% and the “Content of Relevant Substance (%)” value [1, 17] was 0.38%. For the same molecule, the “X-Ray Powder Diffraction” value ([1]; day 5) was “Unchanged”, the “Content (%)” value [1, 18] was 99.61% and the “Content of Relevant Substance (%)” value [1, 18] was 0.39%. For the same molecule, the “Content (%)” value [1, 19] was 99.60%, the “Content of Relevant Substance (%)” value [1, 19] was 0.40% and the “X-Ray Powder Diffraction” value [1, 19] was “Unchanged”. For the same molecule, the “Stability in the strong light irradiation environment” value [1] was “relatively stable”, the “Stability in the high-humidity environment” value [2] was “relatively stable” and the “X-Ray Powder Diffraction” value ([2]; day 0) was “Unchanged”. For the same molecule, the “Content (%)” value [2, 20] was 99.62%, the “Content of Relevant Substance (%)” value [2, 20] was 0.38% and the “X-Ray Powder Diffraction” value ([2]; day 5) was “Unchanged”. For the same molecule, the “Content (%)” value [2, 21] was 99.58%, the “Content of Relevant Substance (%)” value [2, 21] was 0.42% and the “X-Ray Powder Diffraction” value ([2]; day 10) was “Unchanged”. The “Content (%)” value [2, 22] was 99.60%, the “Content of Relevant Substance (%)” value [2, 22] was 0.40% and the AUC ([3]; male SD rats, hydrochloride) was 1247 ng·h/mL. The Cmax ([3]; male SD rats, hydrochloride) was 292 ng/mL, the “Solubility ranking among the four crystal forms” value [4] was “>solubility of crystal form D of demethyleneberberine hydrochloride” and the “X-Ray Powder Diffraction” value ([5]; day 0) was “Unchanged”. The “Content (%)” value [5, 23] was 99.62%, the “Content of Relevant Substance (%)” value [5, 23] was 0.38% and the “X-Ray Powder Diffraction” value ([5]; day 5) was “Unchanged”. For the same molecule, the “Content (%)” value [5, 24] was 99.63%, the “Content of Relevant Substance (%)” value [5, 24] was 0.37% and the “Content (%)” value [5, 25] was 99.61%. The “Content of Relevant Substance (%)” value [5, 25] was 0.39%, the “X-Ray Powder Diffraction” value [5, 25] was “Unchanged” and the “Stability in the high-temperature environment” value [5] was “relatively stable”. For the same molecule, the “Stability … (summary)” value [5] was “stable”, the “Solubility comparison” value [6] was “>solubility of crystal form D of demethyleneberberine hydrochloride” and the “Solubility ranking among the four crystal forms” value [6] was “>solubility of crystal form D of demethyleneberberine hydrochloride”. The “Solubility ranking among the four crystal forms” value [7] was “>solubility of crystal form D of demethyleneberberine hydrochloride”.

With `COc1ccc2cc3[n+](cc2c1OC)CCc1cc(O)c(O)cc1-3` [crystal form B, demethyleneberberine hydrochloride] the “X-Ray Powder Diffraction” value ([1]; day 0) was “Unchanged”, the “Content (%)” value [1, 26] was 99.58% and the “Content of Relevant Substance (%)” value [1, 26] was 0.42%. The “X-Ray Powder Diffraction” value ([1]; day 5) was “Unchanged”, the “Content (%)” value [1, 27] was 99.77% and the “Content of Relevant Substance (%)” value [1, 27] was 0.23%. The “Content (%)” value [1, 28] was 99.67%, the “Content of Relevant Substance (%)” value [1, 28] was 0.33% and the “X-Ray Powder Diffraction” value [1, 28] was “Unchanged”. The “Stability in the strong light irradiation environment” value [1] was “relatively stable”, the “Stability in the high-humidity environment” value [2] was “relatively stable” and the “X-Ray Powder Diffraction” value ([2]; day 0) was “Unchanged”. For the same molecule, the “Content (%)” value [2, 29] was 99.58%, the “Content of Relevant Substance (%)” value [2, 29] was 0.42% and the “X-Ray Powder Diffraction” value ([2]; day 5) was “Unchanged”. For the same molecule, the “Content (%)” value [2, 30] was 99.60%, the “Content of Relevant Substance (%)” value [2, 30] was 0.40% and the “X-Ray Powder Diffraction” value ([2]; day 10) was “Unchanged”. For the same molecule, the “Content (%)” value [2, 31] was 99.56%, the “Content of Relevant Substance (%)” value [2, 31] was 0.44% and the AUC ([3]; male SD rats, hydrochloride) was 1150 ng·h/mL. For the same molecule, the Cmax ([3]; male SD rats, hydrochloride) was 642 ng/mL, the tmax ([3]; male, SD, rat, po, 200 mg/kg, read-out: tmax) was 1 h and the “Solubility ranking among the four crystal forms” value [4] was “>solubility of crystal form A of demethyleneberberine hydrochloride”. For the same molecule, the “X-Ray Powder Diffraction” value ([5]; day 0) was “Unchanged”, the “Content (%)” value [5, 32] was 99.82% and the “Content of Relevant Substance (%)” value [5, 32] was 0.18%. The “X-Ray Powder Diffraction” value ([5]; day 5) was “Unchanged”, the “Content (%)” value [5, 33] was 99.62% and the “Content of Relevant Substance (%)” value [5, 33] was 0.38%. The “Content (%)” value [5, 34] was 99.67%, the “Content of Relevant Substance (%)” value [5, 34] was 0.33% and the “X-Ray Powder Diffraction” value [5, 34] was “Unchanged”. The “Stability in the high-temperature environment” value [5] was “relatively stable”, the “Stability … (summary)” value [5] was “stable” and the “Solubility comparison” value [6] was “>solubility of crystal form A of demethyleneberberine hydrochloride”. For the same molecule, the “Solubility ranking among the four crystal forms” value [6] was “>solubility of crystal form A of demethyleneberberine hydrochloride” and the “Solubility ranking among the four crystal forms” value [7] was “>solubility of crystal form A of demethyleneberberine hydrochloride”.
